Measured values as given in US5244795A, “Processes for preparing cholesterol lowering compounds” (Merck & Co., Inc., priority 1992, dated 1993).

System: Candida albicans
Experiment: FISP disc diffusion assay
Assay type: cell-based
Parameters: key to zone quality qualifier: F: clear zone, fuzzy edges; S: slightly hazy zone (some growth observed throughout zone); H: hazy zone (considerable growth observed throughout zone); V: very hazy zone (zone of inhibition is barely discernable); R: zone displays a ring of resistant growth; no qualifier: clear zone throughout, sharp edges
Details: 250 μg/ml in CH2Cl2
From the text: The FISP assay employs disc diffusion susceptibility testing methods to generate a spectrum of activity against a panel of representative yeasts, filamentous fungi and bacteria.
The yeasts employed in the assay are Saccharomyces cerevisiae, Candida albicans, Candida tropicalis, Candida rugosa, Brettanomyces bruxellensis, Torulospora hansenii, Candida guilliermondi, Candida pseudotropicalis, Torulopsis glabrata, Cryptococcus albidus, Cryptococcus laurentii and Kluyveromyces fragilis.
For carrying out the assay, seeded assay plates are prepared in the following manner according to the type of assay strain.
Inocula for yeasts and bacterial strains are prepared from overnight broth cultures then diluted into potato dextrose agar to a final concentration of either 40 percent or 70 percent transmission at 660 nm.
For three strains of Candida albicans and one strain of Saccharomyces cerevisiae, sterile saline is employed in place of potato dextrose broth.
Assay plates for the yeasts and filamentous fungi are prepared by diluting the inoculum into appropriate molten agar medium, cooled to 45° C. to obtain a final concentration of 4 percent.
The seeded agar media thus prepared are dispensed into petri dishes for assays (11 ml per dish).
The samples to be tested for production of antifungal agent are applied to 6.2 mm filter paper discs (25 μl/disc) and air dried at 24° C. When the sample to be tested is crude broth, it may be centrifuged prior to application. The discs bearing the material to be tested are then applied employing sterile conditions to the seeded assay plates. The assay plates are then incubated at either 28° C. or 37° C. for 24 hours. In one of the assays for Bacillus subtilis, the sample is applied to a disc previously impregnated with 4M potassium chloride at 25 μl/disc and then air dried.
Following incubation, the inhibition zones are measured and recorded. The measurements are made from the extreme edge where growth differs from the background zone. The zones are noted as to appearance as fuzzy edge and clear center, hazy throughout, slightly hazy, very hazy or ringed.
FISP data is reported as the diameter (in mm.) of the zone of inhibition of growth in agar diffusion assays. The zone is determined by measuring growth that differs from the background lawn. A qualifier is also added to describe the zone quality as listed below: no qualifier: clear zone throughout, sharp edges

For `CC(/C=C/C=C(\C)C(O)C(C)C(=O)O[C@H]1C[C@H](C)C=C2C=C[C@@]3(C)O[C@@H](O)CC(=O)[C@]3(C)[C@H]21)=C\C=C\C(=O)O` (some centres unmarked) [Compound A], the zone quality qualifier was “S”, the zone quality qualifier (YNB) was “V” and the zone quality qualifier (YNB/GLU) was “H”. The zone quality qualifier (YNB/NAG) was “H” and the zone of inhibition at 250 µg/mL (Candida albicans, read-out: diameter of the zone of inhibition of growth) was 0 mm.
